This is an account of results in patent US7928114B2, “Crystalline erlotinib” (Synthon BV, priority 2006, dated 2011).

Data set [1] is described as follows: Relative thermodynamic stability of erlotinib free base crystal forms (prolonged stirring in 2-propanol; transitions on heating). Particulars: recrystallization from 2-propanol with prolonged stirring; Forms I and III convert to Form II on heating. Format: physicochemical. The source says:
Recrystallization from 2-propanol may initially give Form II with a small amount of another Form. However, prolonged stirring results in pure Form II.
The hydrates of the invention can be converted into anhydrous forms and vice versa. For instance, any of the hydrates provides for the erlotinib free base Form II by heating.
The transition of hydrate Form I into Form II proceeds via melting of Form I after which the melt recrystallizes to Form II. The transition of Form III into Form II occurs via the solid-solid transformation.

Another data set is described as follows: TGA hygroscopicity. Format: physicochemical. An excerpt:
TGA confirmed that Form II can be considered non-hygroscopic.

Data set [2] is described as follows: XRPD under non-ambient conditions (humidity / elevated temperature). Format: physicochemical. Particulars: 30° C./10-90% RH and 50° C./75% RH.
For data set [3] the following is noted: WO 01/34574, WO 2004/072049; cited from earlier work.
For data set [4] the following is noted: WO 2004/072049 (Form E vs Form B), WO 99/55683 (mesylate vs hydrochloride); cited from earlier work.

“Also recorded” adds a separate entry of the source. Structures can show the parent of a compound that is named as a salt.

On to `C#Cc1cccc(Nc2ncnc3cc(OCCOC)c(OCCOC)cc23)c1` [Form II, [6,7-bis(2-methoxyethoxy)-quinazolin-4-yl]-(3-ethynylphenyl)amine], for which the “thermodynamic stability relative to other free base forms” value in data set [1] is reported as “thermodynamically more stable Form; also recorded: thermodynamically most stable form”. Moreover, the hygroscopicity entry in the data set “TGA hygroscopicity” is on record as “non-hygroscopic”. For the same compound, the “polymorphic transitions under humid conditions at elevated temperatures” value in data set [2] is “does not undergo polymorphic transitions”.
`C#Cc1cccc(Nc2ncnc3cc(OCCOC)c(OCCOC)cc23)c1` [Form B, erlotinib hydrochloride]: the “stability relative to other erlotinib hydrochloride polymorphs” value in data set [3] is “thermodynamically more stable than Form A”.
Consider “erlotinib mesylate [mesylate salt of erlotinib]”, for which, in data set [4], the “solubility relative to comparator form/salt” value is reported as “enhanced solubility compared to the hydrochloride”.
Take `C#Cc1cccc(Nc2ncnc3cc(OCCOC)c(OCCOC)cc23)c1` [Form E, erlotinib hydrochloride]: the “solubility relative to comparator form/salt” value in data set [4] is “higher solubility”.
